Key:
mGlu5 receptor = molecular target: T1, mGlu5 receptor (Rattus norvegicus, UniProt P31424); assay: Radioligand binding assay at metabotropic glutamate receptor 5 in rat brain ([3H]MPEP, forebrain membranes); settings: 4 nM [3H]MPEP, read-out: affinity (Ki) for mGlu5 receptor
T1 construct: from tissue; host or cells: forebrain (cortex, striatum and hippocampus) of male Sprague Dawley rats
Protocol: Radioligand Binding Assay at metabotropic glutamate receptor 5 in rat brain.
a) Membrane preparation: male Sprague Dawley rats (200-300 g, Charles River, Italy) were killed by cervical dislocation and the forebrain (cortex, striatum and hippocampus) was homogenized (2×20 sec) in 50 vols of cold 50 mM Tris buffer pH 7.4, using a Politron homogenizer (Kinematica). Homogenates were centrifuged at 48000×g for 15 min, resuspended in 50 vols of the same buffer, incubated at 37° C. for 15 min and centrifuged and resuspended two more times. The final pellets were frozen and stored at −80° C. until use.
b) Binding assay: pellets from rat forebrain were resuspended in 100 vols of 20 mM HEPES, 2 mM MgCl2, 2 mM CaCl2, pH 7.4. The membranes were incubated in a final volume of 1 ml for 60 min at 25° C. with 4 nM [^3H]MPEP in the absence or presence of competing drugs. Non-specific binding was determined in the presence of 10 μM MPEP (Spooren W. et al., Trends Pharmacol Sci. 22, 331-337, 2001). The incubation was stopped by the addition of cold Tris buffer pH 7.4 and rapid filtration through 0.5% polyethyleneimine pretreated Filtermat 1204-401 (Wallac) filters. The filters were then washed with cold buffer and the radioactivity retained on the filters was counted by liquid scintillation spectrometry. […]

conscious rats = assay: Effect on cystometry in conscious rats (bladder volume capacity); assay type: in vivo, rat
Protocol: Male Sprague-Dawley rats [Crl: CD® (SD) IGS BR] of 300-400 g b.w. supplied by Charles River Italia were used. The animals were housed with free access to food and water and maintained on a forced 12-hour-light/12-hour-dark cycle at 22-24° C. of temperature, except during the experiment. To quantify urodynamic parameters in conscious rats, cystometrographic studies were performed according to the procedure previously reported (Guarneri et al., Pharmacol. Res. 24: 175, 1991).
Briefly, the rats were anaesthetised by intraperitoneal administration of 3 ml/kg of Equithensin solution (pentobarbital 30 mg/kg and chloral hydrate 125 mg/kg) and placed in a supine position. An approximately 10 mm long midline incision was made in the shaved and cleaned abdominal wall. The urinary bladder was gently freed from adhering tissues, emptied and then cannulated via an incision in the bladder body, using a polyethylene cannula (0.58 mm internal diameter, 0.96 mm external diameter) which was permanently sutured with silk thread. […]
On the day of the experiment, the rats were placed in modified Bollman cages, i.e., restraining cages that were large enough to permit the rats to adopt a normal crouched posture, but narrow enough to prevent turning around. […] The intraluminal-pressure signal during infusion of saline into the bladder (cystometrogram) was continuously recorded on a polygraph (Rectigraph-8K San-ei with BM614/2 amplifier from Biomedica Mangoni) or stored on PC by data acquisition system (PowerLab, Chart 4 software, AD Instruments). From the cystometrogram, bladder volume capacity (BVC) was evaluated. […] Basal BVC value was evaluated as the mean of the values observed in the cystometrograms recorded in an initial period of 30-60 minutes. […] The bladder infusion restarted and changes in BVC were evaluated from the mean values obtained in the cystometrograms observed during 1, 2, and 3 hours after treatment. […]
Each experimental group was composed of 4-11 animals. All data were expressed as mean±standard error. […]

T1 sequence (P31424 21-1203): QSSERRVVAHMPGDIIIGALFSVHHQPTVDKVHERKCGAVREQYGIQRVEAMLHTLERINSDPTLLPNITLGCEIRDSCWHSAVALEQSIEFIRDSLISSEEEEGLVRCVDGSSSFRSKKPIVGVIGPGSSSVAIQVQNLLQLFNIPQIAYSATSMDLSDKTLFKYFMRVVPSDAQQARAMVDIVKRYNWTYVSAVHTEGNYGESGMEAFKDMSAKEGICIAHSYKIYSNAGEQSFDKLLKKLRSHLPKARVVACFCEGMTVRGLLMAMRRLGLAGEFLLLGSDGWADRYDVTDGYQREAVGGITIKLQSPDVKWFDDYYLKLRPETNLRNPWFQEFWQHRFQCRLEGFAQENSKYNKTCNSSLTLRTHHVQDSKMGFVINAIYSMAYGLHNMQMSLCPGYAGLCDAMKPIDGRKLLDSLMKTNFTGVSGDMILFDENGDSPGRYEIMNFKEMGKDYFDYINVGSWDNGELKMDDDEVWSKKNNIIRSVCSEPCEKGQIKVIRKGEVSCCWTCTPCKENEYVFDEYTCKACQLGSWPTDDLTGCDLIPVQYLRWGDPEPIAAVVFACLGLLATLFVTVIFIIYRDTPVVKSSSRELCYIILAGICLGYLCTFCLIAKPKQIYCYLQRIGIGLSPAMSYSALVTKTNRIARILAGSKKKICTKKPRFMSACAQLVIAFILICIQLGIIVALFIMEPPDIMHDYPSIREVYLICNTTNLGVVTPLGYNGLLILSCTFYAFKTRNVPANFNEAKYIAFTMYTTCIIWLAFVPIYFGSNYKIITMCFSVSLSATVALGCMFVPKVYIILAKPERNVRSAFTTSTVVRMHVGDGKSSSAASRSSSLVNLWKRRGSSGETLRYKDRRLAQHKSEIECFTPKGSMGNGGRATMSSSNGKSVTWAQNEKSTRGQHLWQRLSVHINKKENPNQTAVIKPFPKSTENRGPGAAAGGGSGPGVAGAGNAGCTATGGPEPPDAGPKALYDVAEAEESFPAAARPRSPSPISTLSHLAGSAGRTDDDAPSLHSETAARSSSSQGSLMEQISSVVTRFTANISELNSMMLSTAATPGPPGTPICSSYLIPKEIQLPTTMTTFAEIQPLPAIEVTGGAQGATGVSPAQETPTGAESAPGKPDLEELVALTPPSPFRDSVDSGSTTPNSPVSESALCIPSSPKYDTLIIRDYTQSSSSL

Structure (SMILES): Cc1ccc([N+](=O)[O-])c(N2CCC(=C/C=C/c3ccccc3)CC2)n1 [Example 1, 6-Methyl-3-nitro-2-[4-[(E)-3-phenylprop-2-enylidene]-1-piperidyl]pyridine]
- Ki (mGlu5 receptor): 1.42 nM

Structure (SMILES): Cc1nc(C#Cc2cccnc2)cs1 [MTEP]
- increase of bladder volume capacity (conscious rats; 1 mg/kg orally): slight increase
- increase of bladder volume capacity (conscious rats; 3 mg/kg orally, statistically significant from the vehicle group after 3 hours from treatment): sustained increase
- MED (Minimal Effective Dose that induces statistically significant increase of bladder volume capacity) (conscious rats; oral): 3

— patent US20100317630A1, “NOVEL HETEROCYCLIC COMPOUNDS AS MGLU5 ANTAGONISTS” (RECORDATI IRELAND LIMITED, priority 2009, published 2010)
